Laboratory results: patent US20240124456A1, “AZA-ERGOLINE DERIVATIVE AND PREPARATION METHOD THEREFOR AND APPLICATION THEREOF” (SHANGHAITECH UNIVERSITY, priority 2021, published 2024)
Read-outs that look alike come from different tables or passages of the source.

What was measured:
Type in all cases: in vivo
[1] = Brain permeability in C57 male mice (plasma and brain tissue concentration); settings: mouse; for Kp at 0.5 h / Kp at 2 h: brain/plasma; for Kp at 0.5 h: read-out: Brain/blood concentration ratio at 0.5 h; for Kp at 2 h: read-out: Brain/blood concentration ratio at 2.0 h
Protocol: • 2. Test of the brain permeability of compound (−)-I-10 administered to C57 male mice by single intragastric administration, intraperitoneal injection and intravenous injection
Using the same method as the pharmacokinetic experiment, 0.030 mL of blood was taken from each animal through the orbit at 0.5 and 2.0 hours, respectively, and anticoagulated with EDTA-K2. Blood samples were placed on ice after collection, and the plasma was separated by centrifugation within 30 minutes (centrifugation conditions: 5000 rpm, 10 minutes, 4° C.) and stored at −80° C. until analysis. After the animal was euthanized by bloodletting, the brain tissue samples were taken, homogenized with 50% methanol according to the body weight of 1:3 (m/v=1:3), and stored at −80° C. before homogenate analysis. The drug concentrations in plasma and brain tissue were analyzed by LC/MS/MS and compared.

[2] = test system: C57B6 male mice; test: Open field athletic ability test, MK801-induced hyperkinesia; settings: for 45 minutes moving distance: n=8
Protocol: Experimental method: The experimental animals were C57B6 male mice, n=8 in each group. This model used C57B6 mice as experimental animals. The behavioral representation of hyperkinesia in open field environment in mice was induced by acute injection of NMDA antagonist MK801 and modeled to test the inhibitory effect of different compounds on hyperkinesia phenotype induced by MK801. All mouse behavior experiments were carried out during the light period of the mice, and the whole experiment was recorded by the camera and automatic tracking and data statistics were carried out by behavioral tracking software. The compound was administered by intraperitoneal injection. Immediately after the injection, the mice entered the open field and their movement trajectories began to record. After 30 minutes, the mice received 0.2 mg/kg of MK801 by intraperitoneal injection and returned to the open field immediately after administration and the movement trajectories were further recorded for 120 min. The accumulative moving distance of the mice was counted at a data sampling point every five minutes. Data statistics were carried out using Student-t-test, p<0.05 was *, p<0.01 was **, p<0.001 was ***, p<0.0001 was ****. The total moving distance of the mice in 0-45 minutes under the combined action of different doses of (−)-I-10 and MK801 (0.2 mg/kg) is shown in Table 7.

[3] = test system: C57B6 male mice; test: Forced swimming experiment after 5 h restraint (depression-like behavior); settings: restraint for five hours
Protocol: The experimental animals were C57B6 male mice, n=8 in each group. Firstly, the C57B6 mice were induced to develop depression-related behavioral representations by restraining the mice for 5 hours, and then the effects of the compounds on their “depression-like” behaviors were determined by tail suspension and forced swimming experiments. The specific experimental procedure was as follows. First, the mice were restrained using a mouse fixator for tail vein injection. During the restraint process, all behavioral abilities of the mice were restricted under the condition of ensuring minimal pain to the mice. The mice were administered intraperitoneally once before and after restraint, respectively. After the restraint, the mice returned to the cage to recover for 30 minutes. After the 30 minutes, the mice in different groups were subjected to tail suspension or forced swimming to detect their “depression-like” behavior, respectively.
Forced swimming experiment: the mouse was placed in a 5 L glass beaker filled with water, the water surface height was 15 cm, and the mouse needed to swim continuously in the beaker for 6 minutes. The first two minutes was the adaptation period and no data collection was performed. The time of the intermittent immobility behavior of the mouse was recorded in the next four minutes, and the immobility behavior of the mouse was defined as: the mouse float passively on the surface of the water without movement, with only small local movements required to maintain afloat. The duration of this immobility state was used to measure the degree of behavioral despair in the mouse. Data statistics were carried out using Student-t-test, p<0.05 was *, p<0.01 was **, p<0.001 was ***, p<0.0001 was ****. The results of statistical data of restrained and unrestrained mouse tail suspension experiment and forced swimming experiment are shown in Table 8.

[4] = test system: C57B6 male mice; test: Old and novel object recognition, MK801 recognition impairment model; settings: for Distinguishing index (DI): MK801 (0.3 mg/kg) 14 injections in 7 days, 7 days recovery
Protocol: The experimental animals were C57B6 male mice, n=8 in each group. Firstly, mice were intraperitoneally injected with MK801 at 0.3 mg/kg twice a day for seven consecutive days to establish a recognition impairment model, and control mice were intraperitoneally injected with normal saline containing the same amount of DMSO. The mice then underwent a seven-day recovery in home cages. After the recovery period expired, the old and novel object distinguishing experiment was performed on the mice to determine the effect of the compounds on the recognition ability of the mice.
Novel and old object recognition experiment: The experiment was carried out in a low-light environment. Before the experiment started, the mice were placed in the experimental field in advance and adapted to the environment for one hour in the low-light environment. After environmental adaptation, the mice were administered intraperitoneally. 30 minutes after the administration, the mice were put in an open field (diameter of the open field of 40 cm) in which two identical objects had been placed beforehand. The mice explored freely in the open field for 10 minutes, and then were removed from the open field and returned to the cage. After a one-hour interval, the mice returned to the open field, where an old object and a novel object were placed in advance in the same position in the open field. Again, the mice explored freely in the open field for 10 minutes. The distinguishing time of the mice for the old object and the novel object was recorded separately and the distinguishing index was calculated. The calculation method of the distinguishing index was (exploration time for novel object−exploration time for old object)/(exploration time for novel object+exploration time for old object). Object exploration by the mice was defined as sniffing, climbing, and direct contact with the object. Data statistics were carried out using Student-t-test, p<0.05 was *, p<0.01 was **, p<0.001 was ***, p<0.0001 was ****.

[5] = ip, intraperitoneal injection 1 mg/kg

## CN(C)C(=O)N[C@H]1CC[C@H](CCN2CCN3c4cccc5[nH]cc(c45)C[C@H]3C2)CC1 [(−)-I-10]
[1]; brain, intravenous injection 1 mg/kg, read-out: Drug concentration at 0.5 h in brain
  concentration at 0.5 h: 219 ± 21 ng/mL
[1]; brain, intravenous injection 1 mg/kg, read-out: Drug concentration at 2.0 h in brain
  concentration at 2 h: 77 ± 7 ng/mL
[1]; brain, ip, intraperitoneal injection 1 mg/kg, read-out: Drug concentration at 0.5 h in brain
  concentration at 0.5 h: 193 ± 13 ng/mL
[1]; brain, ip, intraperitoneal injection 1 mg/kg, read-out: Drug concentration at 2.0 h in brain
  concentration at 2 h: 42.7 ± 4 ng/mL
[1]; brain, oral administration 5 mg/kg, read-out: Drug concentration at 0.5 h in brain
  concentration at 0.5 h: 346 ± 217 ng/mL
[1]; brain, oral administration 5 mg/kg, read-out: Drug concentration at 2.0 h in brain
  concentration at 2 h: 169 ± 23 ng/mL
[1]; intravenous injection 1 mg/kg
  Kp at 0.5 h: 1.65
  Kp at 2 h: 3.09
[1]; [5]
  Kp at 0.5 h: 1.56
  Kp at 2 h: 3.1
[1]; oral administration 5 mg/kg
  Kp at 0.5 h: 1.5
  Kp at 2 h: 1.78
[1]; plasma, intravenous injection 1 mg/kg, read-out: Drug concentration at 0.5 h in plasma
  concentration at 0.5 h: 133 ± 19 ng/mL
[1]; plasma, intravenous injection 1 mg/kg, read-out: Drug concentration at 2.0 h in plasma
  concentration at 2 h: 24.9 ± 5 ng/mL
[1]; plasma, ip, intraperitoneal injection 1 mg/kg, read-out: Drug concentration at 0.5 h in plasma
  concentration at 0.5 h: 124 ± 15 ng/mL
[1]; plasma, ip, intraperitoneal injection 1 mg/kg, read-out: Drug concentration at 2.0 h in plasma
  concentration at 2 h: 13.8 ± 2.7 ng/mL
[1]; plasma, oral administration 5 mg/kg, read-out: Drug concentration at 0.5 h in plasma
  concentration at 0.5 h: 231 ± 153 ng/mL
[1]; plasma, oral administration 5 mg/kg, read-out: Drug concentration at 2.0 h in plasma
  concentration at 2 h: 95 ± 16 ng/mL
[2]; 0.4/0.1/0.025 mg/kg
  inhibition of the improvement of athletic ability induced by MK801 (in words): significantly inhibit
[2]; MK801 (0.2 mg/kg) + 0.00625 mg/kg intraperitoneal
  45 minutes moving distance: 11626 cm
[2]; MK801 (0.2 mg/kg) + 0.025 mg/kg intraperitoneal
  45 minutes moving distance: 8643 cm
[2]; MK801 (0.2 mg/kg) + 0.1 mg/kg intraperitoneal
  45 minutes moving distance: 3833 cm
[2]; MK801 (0.2 mg/kg) + 0.4 mg/kg intraperitoneal
  45 minutes moving distance: 2644 cm
[3]; 0.00625 mg/kg intraperitoneal
  Immobility time, forced swimming experiment: 76.09 s
[3]; 0.025 mg/kg intraperitoneal
  Immobility time, forced swimming experiment: 56.59 s
[3]; 0.1 mg/kg intraperitoneal
  Immobility time, forced swimming experiment: 42.76 s
[3]; 0.4 mg/kg intraperitoneal
  Immobility time, forced swimming experiment: 22.40 s
[4]; 0.1 mg/kg and 0.025 mg/kg
  improvement of MK801-induced recognition impairment (in words): significantly improve
[4]; 0.00625 mg/kg
  Distinguishing index (DI): 0.05971 ± 0.03658
[4]; 0.025 mg/kg
  Distinguishing index (DI): 0.3320 ± 0.06367
[4]; 0.1 mg/kg
  Distinguishing index (DI): 0.2789 ± 0.04036
